Assay results: PMC11945657, “Microwave-Assisted Synthesis of Morpholine-Based Chalcones as Reversible MAO-A Inhibitors in the Management of Mental Depression” (Pharmaceuticals, 2025)
Several values for one entry are separate records, joined by “and”; a condition that tells them apart may be missing. Identical values can stand only once. Like-named read-outs stand apart in the source and are kept apart here. Values belong to the molecule of their own block, whether it stands above or below them.

How the values were obtained:
hMAO-A [1] = target: T1, hMAO-A (Homo sapiens, UniProt P21397); test: Reversibility inhibition study (dilution method); format: biochemical; design: purchased Sigma-Aldrich; settings: for reversibility of hMAO-A inhibition: dilution method
T1 sequence (P21397 1-527): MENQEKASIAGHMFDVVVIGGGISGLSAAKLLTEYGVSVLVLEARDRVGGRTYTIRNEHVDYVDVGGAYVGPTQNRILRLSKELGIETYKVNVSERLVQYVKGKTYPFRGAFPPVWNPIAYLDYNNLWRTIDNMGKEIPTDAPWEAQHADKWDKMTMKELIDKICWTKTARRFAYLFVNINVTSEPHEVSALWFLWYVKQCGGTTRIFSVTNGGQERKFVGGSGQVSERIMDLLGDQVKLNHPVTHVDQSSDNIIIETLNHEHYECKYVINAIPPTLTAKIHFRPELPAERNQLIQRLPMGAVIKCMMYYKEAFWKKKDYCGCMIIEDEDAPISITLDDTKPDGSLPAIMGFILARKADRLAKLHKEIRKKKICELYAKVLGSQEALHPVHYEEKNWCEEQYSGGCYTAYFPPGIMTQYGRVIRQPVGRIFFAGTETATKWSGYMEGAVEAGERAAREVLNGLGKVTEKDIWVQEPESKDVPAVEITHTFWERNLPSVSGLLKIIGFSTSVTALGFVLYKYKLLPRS
Experimental: Reversibility inhibition investigations were conducted using dilution methods as per the reported protocol, and all experiments were performed in triplicate. […] Substrate and buffer solutions were used for the dilution.

[2] = DPPH free radical scavenging antioxidant assay; settings: for antioxidant potential in the DPPH assay: concentration not given
Experimental: H2O2 produced during metabolic events in the brain may be crucial for signaling and metabolic functions. The compounds were screened to check their potential to inhibit ROS through the DPPH assay. […] However, further studies are required to confirm this effect.
The DPPH approach, which gauges the free radical scavenging activity, was used to evaluate the antioxidant properties of the compounds. The test was performed according to the literature method. The stock solution of DPPH (0.5 mM) was prepared, and methanol was used to create each dilution. The different concentrations (10, 25, 50, 75, and 100 μM) of the test compounds (C1–C15) were prepared and compared with the standard ascorbic acid. The percentage antioxidant activity of the compounds was calculated using the following formula: % Antioxidant activity = [(Aabsorbance − Atest)/Aabsorbance] × 100.

hMAO-B = target: T2, hMAO-B (Homo sapiens, UniProt P27338); test: MAO inhibition assay (Amplex Red, fluorimetric), MAO-B
T2 sequence (P27338 1-520): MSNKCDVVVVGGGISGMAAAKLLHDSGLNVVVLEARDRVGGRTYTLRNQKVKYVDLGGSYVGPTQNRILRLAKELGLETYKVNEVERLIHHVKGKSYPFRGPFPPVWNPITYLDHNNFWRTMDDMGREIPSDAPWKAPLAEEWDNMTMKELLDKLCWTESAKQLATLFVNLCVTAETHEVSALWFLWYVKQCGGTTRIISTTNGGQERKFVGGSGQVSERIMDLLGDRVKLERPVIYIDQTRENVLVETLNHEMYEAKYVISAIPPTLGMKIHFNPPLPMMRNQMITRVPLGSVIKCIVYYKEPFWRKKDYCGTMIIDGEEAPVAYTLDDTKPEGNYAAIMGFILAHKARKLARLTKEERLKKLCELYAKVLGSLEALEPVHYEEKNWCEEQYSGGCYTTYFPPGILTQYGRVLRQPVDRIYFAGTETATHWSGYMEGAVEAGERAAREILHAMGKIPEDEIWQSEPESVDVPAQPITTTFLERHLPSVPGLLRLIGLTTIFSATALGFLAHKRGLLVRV

hMAO-A [3] = target: T1, hMAO-A; test: MAO inhibition assay (Amplex Red, fluorimetric), MAO-A; settings: for inhibition at 20 µM: read-out: Percentage Inhibition at 20 μM MAO-A, 20 μM
MAO-A = settings: Figure 1, read-out: MAO-A inhibition, cited from earlier work
hMAO-A [4] = target: T1, hMAO-A; design: purchased Sigma-Aldrich; settings: Figure 1, read-out: hMAO-A inhibition; cited from earlier work
[5] = 0.1 × IC50, after 100 times dilution with tyramine substrate
[6] = 1 × IC50, after 100 times dilution with tyramine substrate
[7] = read-out: Percentage Inhibition at 20 μM MAO-B

% MAO-A activity (hMAO-A [1]; [5]): 65.33%
% MAO-A activity (hMAO-A [1]; [6]): 35.76%
% MAO-A activity (hMAO-A [1]; 10 × IC50, before dilution): 6.67%
% MAO-A activity (hMAO-A [1]; 100 × IC50, before dilution): 3.28%
reversibility of hMAO-A inhibition (hMAO-A [1]): reversibly inhibit
inhibition at 20 µM (hMAO-B; read-out: IC50 Values MAO-B): < 50%
inhibition at 20 µM (hMAO-B; [7]): 35.3%
IC50 (hMAO-A [3]): 7.91 ± 0.08 µM
Percentage Inhibition at 20 μM MAO-A (hMAO-A [3]): 75.45%
inhibition at 20 µM (hMAO-A [3]): 75.4%
Compound: O=C(/C=C/c1ccc(F)cc1F)c1ccc(N2CCOCC2)cc1 [Compound C14, (E)-3-(2,4-Difluorophenyl)-1-(4-morpholinophenyl)prop-2-en-1-one]
% Antioxidant Activity ([2]; 10 µM): 10.51%
% Antioxidant Activity ([2]; 25 µM): 18.21%
% Antioxidant Activity ([2]; 50 µM): 41.12%
% Antioxidant Activity ([2]; 75 µM): 50% and 53.12%
% Antioxidant Activity ([2]; 100 µM): 59.51%
antioxidant potential in the DPPH assay [2]: more than 50%

Compound: O=C(/C=C/c1ccc(C(F)(F)F)cc1)c1ccc[nH]1 [Compound 3]
IC50 (MAO-A): 3.81 ± 0.387 µM

Compound: CCOc1ccc(C(=O)/C=C/c2ccc(F)cc2)cc1 [Compound 2]
IC50 (hMAO-A [4]): 4.63 ± 0.15 µM

Compound: COc1cc(OC)c(/C=C/C(=O)c2ccc(F)cc2)c(OC)c1 [Compound 4]
IC50 (MAO-A): 0.444 ± 0.039 µM

Compound: COc1cc(OC)c(/C=C/C(=O)c2ccc(Br)cc2)c(OC)c1 [Compound 1]
IC50 (MAO-A): 0.56 ± 0.076 µM

% MAO-A activity (hMAO-A [1]; [5]): 68.83%
% MAO-A activity (hMAO-A [1]; [6]): 38.95%
% MAO-A activity (hMAO-A [1]; 10 × IC50, before dilution): 8.32%
% MAO-A activity (hMAO-A [1]; 100 × IC50, before dilution): 3.41%
reversibility of hMAO-A inhibition (hMAO-A [1]): reversibly inhibit
inhibition at 20 µM (hMAO-B; read-out: IC50 Values MAO-B): < 50%
inhibition at 20 µM (hMAO-B; [7]): 31.9%
IC50 (hMAO-A [3]): 8.45 ± 0.19 µM
Percentage Inhibition at 20 μM MAO-A (hMAO-A [3]): 71.67%
inhibition at 20 µM (hMAO-A [3]): 71.6%
Compound: O=C(/C=C/c1ccc(F)c(F)c1)c1ccc(N2CCOCC2)cc1 [Compound C6, (E)-3-(3,4-Difluorophenyl)-1-(4-morpholinophenyl)prop-2-en-1-one]
% Antioxidant Activity ([2]; 10 µM): 12.25%
% Antioxidant Activity ([2]; 25 µM): 24.46%
% Antioxidant Activity ([2]; 50 µM): 36.03%
% Antioxidant Activity ([2]; 75 µM): 50% and 53.39%
% Antioxidant Activity ([2]; 100 µM): 55.16%
antioxidant potential in the DPPH assay [2]: more than 50%

Compound: COc1cc(C(=O)/C=C/c2ccc([N+](=O)[O-])cc2)cc(OC)c1OC [Compound 5]
Ki (MAO-A; Ki): 3.47 ± 0.09 µM
